Measured values taken from patent publication US20210222177A1, “THERAPEUTIC AGENT FOR CARTILAGE-RELATED DISEASE” (ONO PHARMACEUTICAL CO., LTD., priority 2018, published 2021).

System: Normal human knee joint chondrocytes
Assay: Evaluation of chondrocyte differentiation promoting action (chondrocyte pellet culture)
Format: cell-based
Details: ASO final concentration 1000 nmol/L with calcium chloride 9 mmol/L, pellet-cultured for 10 days, versus Vehicle group
Description: Normal human knee joint chondrocytes (Lonza Walkersville, Inc.) were thawed and cultured (culture conditions; 5% CO2, 37° C., 95% Air, the same conditions applies hereafter.) in a subculture medium (DMEM/F-12+glutaMAX, included in set of chondrocyte addition factors (Lonza Walkersville, Inc.)). Diluted subculture was performed after subconfluent, and two days after subculture, the culture was treated with antisense oligonucleotides against SIK2 and SIK3 (hereinafter SIK2 ASO; ACAACAACTGCACTTT (SEQ ID NO: 1) and SIK3 ASO; GGTTAGTGCCACGTTG (SEQ ID NO: 6)) in the presence of calcium chloride (9 mmol/L) (final concentration 1000 nmol/L). […] Chondrocyte pellets were imaged using Opera Phenix High Content Screening System (PerkinElmer), and pellet size (area of the pellet image) was calculated using an attached analysis software Harmony. The chondrocyte pellets after imaging were frozen in liquid nitrogen, crushed using AUTOMILL (Tokken, inc.), and then total RNA was extracted using RNeasy Plus Mini Kit (QIAGEN N.V.). cDNA was synthesized from a total RNA solution using High Capacity cDNA Reverse Transcription Kit, and expression level of each gene was measured by real-time polymerase chain reaction (PCR) method using TaqMan Fast Universal PCR Master Mix (2×) (Life Technologies Corporation) and Primer-Probe (COL2A1 assay ID: Hs01060345_m1, COL1A2 assay ID: Hs01028970_m1) of each gene. […]

“SIK2 ASO: SIK2 antisense oligonucleotide, ACAACAACTGCACTTT (SEQ ID NO: 1) (listed as DNA, chemistry not given here)” was tested, and the “cartilage differentiation markers COL2A1/COL1A2” value (real-time PCR, FIG. 2) was “increased” and the “chondrocyte pellet size (area of the pellet image)” value (t-test, FIG. 1) was “significantly increased”.
